Experiment [1] concerns the target T1, Dual specificity protein kinase CLK1 (Homo sapiens, UniProt P49759). Briefly: Inhibition of recombinant human CLK1 (130 to end residues) using ERMRPRKRQGSVR as substrate incubated for 40 mins in presence of [gamma-33ATP] by scintillation counting based radiometry assay.
Target sequence in this assay (P49759 whole entry): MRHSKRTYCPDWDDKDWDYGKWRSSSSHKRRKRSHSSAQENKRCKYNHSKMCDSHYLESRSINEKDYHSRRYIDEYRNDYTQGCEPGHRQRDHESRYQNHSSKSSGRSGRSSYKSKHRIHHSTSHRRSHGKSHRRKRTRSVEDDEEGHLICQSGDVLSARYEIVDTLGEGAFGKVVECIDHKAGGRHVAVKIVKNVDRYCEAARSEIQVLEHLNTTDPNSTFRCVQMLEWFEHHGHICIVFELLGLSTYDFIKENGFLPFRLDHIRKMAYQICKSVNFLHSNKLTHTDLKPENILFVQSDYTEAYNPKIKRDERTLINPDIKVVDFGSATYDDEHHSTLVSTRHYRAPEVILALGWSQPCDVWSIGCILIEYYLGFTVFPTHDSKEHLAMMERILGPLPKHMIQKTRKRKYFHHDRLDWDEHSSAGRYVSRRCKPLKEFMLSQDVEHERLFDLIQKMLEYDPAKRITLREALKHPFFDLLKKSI
The subject of experiment [2] is SK-OV-3. The experiment can be described thus: Induction of autophagic flux in human SKOV-3 cells assessed as SQSTM1/p62 protein level at 10 uM after 24 hrs in presence of V-ATPase inhibitor bafilomycin-A1 by Western blot analysis. The format is functional, cell-based.
The target of experiment [3] is T1, Dual specificity protein kinase CLK1. Briefly: Inhibition of CLK1 in human SKOV-3 cells assessed as decrease in SRp55 phosphorylation after 24 hrs by Western blot analysis. The note with it: SK-OV-3, dose 0.33-30 µM. The format is cell-based.
Target sequence in this assay (P49759 whole entry, looked up): as the sequence (P49759 whole entry) above
Experiment [4] shares this target. The experiment can be described thus: Inhibition of CLK1 in human SKOV-3 cells assessed as redistribution of SR protein from nucleoplasm to nuclear speckles at 0.1 uM after 24 hrs by immunofluorescence assay. The format is cell-based. The note with it: SK-OV-3.
Target sequence in this assay (P49759 whole entry, looked up): as the sequence (P49759 whole entry) above
In experiment [5] the target is Dual specificity tyrosine-phosphorylation-regulated kinase 1B (Homo sapiens, UniProt Q9Y463). The experiment can be described thus: Inhibition of recombinant full length human DYRK1B using RRRFRPASPLRGPPK as substrate incubated for 40 mins in presence of [gamma-33ATP] by scintillation counting based radiometry assay.
Experiment [6] relates to SK-OV-3. Briefly: Induction of autophagy in human SKOV-3 cells assessed as degradation of SQSTM1/p62 at 0.33 to 30 uM measured after 24 hrs by Western blot analysis. It is filed as functional, cell-based. The note with it: dose 0.33-30 µM.
Experiment [7] concerns the target Dual specificity protein kinase CLK4 (Homo sapiens, UniProt Q9HAZ1). The experiment can be described thus: Inhibition of recombinant human CLK4 (128 to end residues) using YRRAAVPPSPSLSRHSSPHQS(p)EDEEE as substrate incubated for 40 mins in presence of [gamma-33ATP] by scintillation counting based radiometry assay.
For experiment [8], the target named is Dual specificity protein kinase CLK3 (Homo sapiens, UniProt P49761). The experiment can be described thus: Inhibition of recombinant full length human CLK3 using ERMRPRKRQGSVR as substrate incubated for 40 mins in presence of [gamma-33ATP] by scintillation counting based radiometry assay.
Experiment [9] addresses Dual specificity tyrosine-phosphorylation-regulated kinase 1A (Homo sapiens, UniProt Q13627). Briefly: Inhibition of recombinant full length human DYRK1A using RRRFRPASPLRGPPK as substrate incubated for 40 mins in presence of [gamma-33ATP] by scintillation counting based radiometry assay.
Experiment [10] concerns SK-OV-3. Briefly: Induction of autophagy in human SKOV-3 cells assessed as increase in LC3-II to LC3-I ratio incubated for 24 hrs by Western blot analysis. The format is functional, cell-based. To be noted: dose 0.33-30 µM.
Experiment [11] relates to SK-OV-3. Briefly: Induction of autophagy in human SKOV-3 cells assessed as increase in LC3-II protein level incubated for 24 hrs by Western blot analysis. The format is functional, cell-based. The note with it: dose 0.33-30 µM.
Experiment [12] deals with Dual specificity protein kinase CLK2 (Homo sapiens, UniProt P49760). Briefly: Inhibition of recombinant human CLK2 (138 to end residues) using YRRAAVPPSPSLSRHSSPHQS(p)EDEEE as substrate incubated for 40 mins in presence of [gamma-33ATP] by scintillation counting based radiometry assay.
Experiment [13] addresses T1, Dual specificity protein kinase CLK1. Briefly: Inhibition of CLK1 in human SKOV-3 cells assessed as decrease in SRp75 phosphorylation after 24 hrs by Western blot analysis. The format is cell-based. The note with it: SK-OV-3, dose 0.33-30 µM.
Target sequence in this assay (P49759 whole entry, looked up): as the sequence (P49759 whole entry) above
For experiment [14], the system named is SK-OV-3. The experiment can be described thus: Induction of autophagy in human SKOV-3 cells transfected with Ad-mRFP-GFP-LC3 assessed as induction of autophagosomes formation by measuring increase in number of yellow LC3 puncta at 0.1 uM measured after 24 hrs by confocal microscopic analysis. The format is functional, cell-based.
Experiment [15] concerns SK-OV-3. The experiment can be described thus: Induction of autophagic flux in human SKOV-3 cells assessed as LC3-II protein level at 10 uM after 24 hrs in presence of V-ATPase inhibitor bafilomycin-A1 by Western blot analysis. The format is functional, cell-based.
The subject of experiment [16] is SK-OV-3. The experiment can be described thus: Induction of autophagy in human SKOV-3 cells transfected with Ad-mRFP-GFP-LC3 assessed as induction of autolysosomes formation by measuring increase in number of red LC3 puncta at 0.1 uM measured after 24 hrs by confocal microscopic analysis. It is filed as functional, cell-based.

This passage reports IC50, Activity and inhibition results from ChEMBL document CHEMBL4813966, “Discovery of 3,6-disubstutited-imidazo[1,2-a]pyridine derivatives as a new class of CLK1 inhibitors” (Bioorg Med Chem Lett, 2021).

Activity calls are given as the source filed them. The calls are words filed in the database; no cut-off is given here.

Dual specificity protein kinase CLK3, sequence (P49761 whole entry): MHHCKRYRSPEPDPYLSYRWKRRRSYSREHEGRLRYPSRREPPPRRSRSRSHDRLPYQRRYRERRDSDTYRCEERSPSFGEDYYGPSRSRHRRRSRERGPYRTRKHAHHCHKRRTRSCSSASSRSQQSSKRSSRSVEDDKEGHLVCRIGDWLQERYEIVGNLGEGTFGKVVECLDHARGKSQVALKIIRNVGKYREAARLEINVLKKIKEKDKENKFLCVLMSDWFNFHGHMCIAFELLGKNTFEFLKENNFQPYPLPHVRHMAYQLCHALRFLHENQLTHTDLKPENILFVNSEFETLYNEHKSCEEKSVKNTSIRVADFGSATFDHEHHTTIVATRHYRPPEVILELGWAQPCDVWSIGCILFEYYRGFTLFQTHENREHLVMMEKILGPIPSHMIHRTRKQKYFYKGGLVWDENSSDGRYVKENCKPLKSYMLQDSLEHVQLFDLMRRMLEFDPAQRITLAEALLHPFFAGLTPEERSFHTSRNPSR
Dual specificity protein kinase CLK2, sequence (P49760 whole entry): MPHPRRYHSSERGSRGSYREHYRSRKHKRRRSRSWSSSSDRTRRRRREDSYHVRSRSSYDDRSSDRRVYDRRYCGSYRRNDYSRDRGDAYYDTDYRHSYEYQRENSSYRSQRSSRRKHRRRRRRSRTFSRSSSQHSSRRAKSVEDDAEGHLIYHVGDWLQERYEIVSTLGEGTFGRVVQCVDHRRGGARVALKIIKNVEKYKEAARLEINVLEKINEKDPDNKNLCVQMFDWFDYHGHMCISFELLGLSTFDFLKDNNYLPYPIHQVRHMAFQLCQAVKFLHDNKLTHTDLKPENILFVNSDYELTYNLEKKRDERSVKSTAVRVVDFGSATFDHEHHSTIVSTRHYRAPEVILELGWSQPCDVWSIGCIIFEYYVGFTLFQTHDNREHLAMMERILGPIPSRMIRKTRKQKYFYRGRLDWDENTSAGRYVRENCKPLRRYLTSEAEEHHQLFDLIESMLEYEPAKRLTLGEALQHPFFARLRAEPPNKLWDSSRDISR
Dual specificity tyrosine-phosphorylation-regulated kinase 1B, sequence (Q9Y463 whole entry): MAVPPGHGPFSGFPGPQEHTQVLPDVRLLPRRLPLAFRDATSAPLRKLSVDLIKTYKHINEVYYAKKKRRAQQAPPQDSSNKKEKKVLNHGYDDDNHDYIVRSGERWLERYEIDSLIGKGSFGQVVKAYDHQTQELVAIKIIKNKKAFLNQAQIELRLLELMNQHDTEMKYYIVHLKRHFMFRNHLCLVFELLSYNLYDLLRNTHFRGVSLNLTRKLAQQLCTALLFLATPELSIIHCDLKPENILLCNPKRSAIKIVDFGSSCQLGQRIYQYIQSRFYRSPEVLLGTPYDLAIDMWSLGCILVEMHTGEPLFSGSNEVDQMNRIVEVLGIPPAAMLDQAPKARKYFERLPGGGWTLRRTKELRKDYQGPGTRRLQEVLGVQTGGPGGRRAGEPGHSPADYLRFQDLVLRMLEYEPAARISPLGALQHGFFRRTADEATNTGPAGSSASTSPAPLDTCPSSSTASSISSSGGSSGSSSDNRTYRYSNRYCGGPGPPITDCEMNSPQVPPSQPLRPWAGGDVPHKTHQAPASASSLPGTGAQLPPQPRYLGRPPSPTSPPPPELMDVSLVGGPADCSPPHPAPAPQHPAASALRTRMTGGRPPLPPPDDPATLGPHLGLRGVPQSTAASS
Dual specificity protein kinase CLK4, sequence (Q9HAZ1 whole entry): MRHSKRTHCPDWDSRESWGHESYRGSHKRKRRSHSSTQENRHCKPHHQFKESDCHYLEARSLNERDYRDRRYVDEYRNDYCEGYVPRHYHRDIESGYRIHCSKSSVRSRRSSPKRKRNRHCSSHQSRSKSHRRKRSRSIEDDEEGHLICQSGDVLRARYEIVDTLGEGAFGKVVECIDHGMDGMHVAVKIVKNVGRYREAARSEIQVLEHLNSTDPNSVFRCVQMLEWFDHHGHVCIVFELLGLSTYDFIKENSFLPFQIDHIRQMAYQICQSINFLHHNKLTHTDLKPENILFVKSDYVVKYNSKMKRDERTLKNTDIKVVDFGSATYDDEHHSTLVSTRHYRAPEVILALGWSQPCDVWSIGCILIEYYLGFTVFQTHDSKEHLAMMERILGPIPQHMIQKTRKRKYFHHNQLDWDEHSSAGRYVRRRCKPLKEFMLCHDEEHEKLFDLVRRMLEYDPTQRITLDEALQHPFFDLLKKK

For the compound `Cn1cc(-c2ccc3ncc(C(=O)NCc4ccccc4)n3c2)cn1`, the IC50 in experiment [1] stood at 12 nM.

Turning to `C[C@@H](NC(=O)c1cnc2ccc(-c3cnn(C)c3)cn12)c1ccccc1`, the IC50 in [1] is 14 nM.

On to `COc1ccc([C@@H](C)NC(=O)c2cnc3ccc(-c4ccc5ncccc5c4)cn23)cc1`, for which, in [1], the IC50 came out at 6 nM. Take `C[C@@H](NC(=O)c1cnc2ccc(-c3ccc4ncccc4c3)cn12)c1ccccc1`: the IC50 in [1] stood at 6 nM.

With `COc1ccc(CNC(=O)c2cnc3ccc(-c4ccc5ccccc5c4)cn23)cc1`, the 50% inhibitory concentration (IC50) in experiment [1] is more than 10000 nM. The same measure, in the same setting: in the case of `COc1ccc([C@H](C)NC(=O)c2cnc3ccc(-c4ccc5ncccc5c4)cn23)cc1` it was 44 nM; in that of `Cn1cc(-c2ccc3ncc(C(=O)NCc4ccc(Cl)cc4)n3c2)cn1`, 14 nM; in that of `COc1ccc(CNC(=O)c2cnc3ccc(-c4ccc5ocnc5c4)cn23)cc1`, 122 nM. As for `COc1cccc(CNC(=O)c2cnc3ccc(-c4cnn(C)c4)cn23)c1`, the IC50 in experiment [1] worked out at 11 nM.

For the compound `COc1ccc(NC(=O)c2cnc3ccc(-c4cnn(C)c4)cn23)cc1`, the IC50 in experiment [1] worked out at 7 nM. As for `C[C@H](NC(=O)c1cnc2ccc(-c3cnn(C)c3)cn12)c1ccccc1`, the half-inhibitory concentration (IC50) in experiment [1] came out at 296 nM.

For `CNC(=O)c1cnc2ccc(-c3cnn(C)c3)cn12`, in experiment [1], the IC50 amounted to 23 nM. For `COc1ccc(CNC(=O)c2cnc3ccc(-c4ccc5ncccc5c4)cn23)cc1`, the result in the experiment on SK-OV-3 [2] and in the experiment on SK-OV-3 [15] was inactive. The IC50 was 4 nM in experiment [1]; 148 nM in experiment [5]; 17 nM in [7]; more than 10000 nM in experiment [8]; 10 nM in experiment [9]; 50 nM in [12]. For the same compound, the inhibition result in experiment [3] and in experiment [13] was “Dose-Dependent Effect” in each case. In addition, in [4], the inhibition result was “Active”. For the same compound, the outcome in the experiment on SK-OV-3 [6], with SK-OV-3 [14] and in the experiment with SK-OV-3 [16] was Active. Also, the Activity result in the experiment with SK-OV-3 [10] and in the experiment with SK-OV-3 [11] was “Dose-Dependent Effect” throughout. With `COc1ccc(CNC(=O)c2cnc3ccc(-c4cnn(C)c4)cn23)cc1`, in experiment [1], the concentration for half-maximal inhibition (IC50) turned out to be 6 nM.

Turning to `CC(C)Oc1ccc(CNC(=O)c2cnc3ccc(-c4cnn(C)c4)cn23)cc1`, the IC50 in [1] came to 8 nM.

For the compound `C[C@H](NC(=O)c1cnc2ccc(-c3cnn(C)c3)cn12)c1ccc(Cl)cc1`, in experiment [1], the IC50 was found to be 399 nM. Still for that read-out and setting: next, `COc1ccc([C@@H](C)NC(=O)c2cnc3ccc(-c4cnn(C)c4)cn23)cc1`: 8 nM. On the same count and under the same terms, next, `COc1ccc([C@H](C)NC(=O)c2cnc3ccc(-c4cnn(C)c4)cn23)cc1`: 809 nM; `COc1ccc(CNC(=O)c2cnc3ccc(-c4c(C)noc4C)cn23)cc1`: more than 10000 nM. As for `C[C@@H](NC(=O)c1cnc2ccc(-c3cnn(C)c3)cn12)c1ccc(Cl)cc1`, the IC50 in experiment [1] stood at 11 nM. The same measure, in the same setting: next, `COc1ccc(NNC(=O)c2cnc3ccc(-c4ccc5ncccc5c4)cn23)cc1`: 5 nM; `COc1ccc(CNC(=O)c2cnc3ccc(-c4ccncc4)cn23)cc1`: 13 nM.

Take `C[C@H](NC(=O)c1cnc2ccc(-c3ccc4ncccc4c3)cn12)c1ccccc1`: the IC50 in [1] worked out at 52 nM.
